Holding throughout (format): biochemical
In one experiment the target is LCK (Homo sapiens, UniProt P06239). The experiment is described as follows: Inhibition of a panel of kinases, in vitro HotSpot kinase assay: LCK. The following applies: D-compounds panel data; 1 μM ATP; read-out: IC50 LCK.
A further experiment addresses T1, JAK3 (Homo sapiens, UniProt P52333).
T1 sequence (P52333 1-1124): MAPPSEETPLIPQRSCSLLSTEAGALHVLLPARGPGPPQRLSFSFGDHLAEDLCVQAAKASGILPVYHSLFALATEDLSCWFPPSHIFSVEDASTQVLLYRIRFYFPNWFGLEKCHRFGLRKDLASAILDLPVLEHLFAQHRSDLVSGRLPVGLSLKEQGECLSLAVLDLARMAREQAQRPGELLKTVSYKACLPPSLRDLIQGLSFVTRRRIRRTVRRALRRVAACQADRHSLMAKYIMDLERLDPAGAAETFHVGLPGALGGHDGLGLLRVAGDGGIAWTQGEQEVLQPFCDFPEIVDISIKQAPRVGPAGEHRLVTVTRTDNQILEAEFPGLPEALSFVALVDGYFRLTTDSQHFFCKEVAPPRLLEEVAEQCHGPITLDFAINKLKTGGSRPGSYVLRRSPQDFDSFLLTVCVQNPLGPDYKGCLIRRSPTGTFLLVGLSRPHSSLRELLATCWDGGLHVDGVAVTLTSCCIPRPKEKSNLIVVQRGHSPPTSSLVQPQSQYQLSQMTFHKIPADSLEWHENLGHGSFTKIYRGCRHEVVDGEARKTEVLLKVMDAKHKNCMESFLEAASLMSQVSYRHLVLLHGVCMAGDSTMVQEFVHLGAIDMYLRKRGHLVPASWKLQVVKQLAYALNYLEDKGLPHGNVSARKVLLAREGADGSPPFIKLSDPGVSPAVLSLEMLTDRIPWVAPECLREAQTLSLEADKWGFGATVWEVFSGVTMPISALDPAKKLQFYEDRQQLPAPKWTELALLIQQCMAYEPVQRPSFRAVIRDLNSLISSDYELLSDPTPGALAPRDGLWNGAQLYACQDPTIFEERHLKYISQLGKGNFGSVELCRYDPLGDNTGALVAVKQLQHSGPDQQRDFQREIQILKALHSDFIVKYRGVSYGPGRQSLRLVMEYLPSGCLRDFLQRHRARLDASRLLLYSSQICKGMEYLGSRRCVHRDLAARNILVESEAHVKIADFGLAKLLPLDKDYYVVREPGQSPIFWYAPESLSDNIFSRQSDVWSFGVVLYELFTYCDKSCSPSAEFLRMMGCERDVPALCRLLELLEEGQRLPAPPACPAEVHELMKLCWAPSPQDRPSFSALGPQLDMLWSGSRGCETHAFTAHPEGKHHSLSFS
The experiment is described as follows: Inhibition of a panel of kinases, in vitro HotSpot kinase assay: JAK3. The following applies: D-compounds panel data; 1 μM ATP; read-out: IC50 JAK3.

The target of a further experiment is T2, TEC (Homo sapiens, UniProt P42680).
T2 sequence (P42680 1-631): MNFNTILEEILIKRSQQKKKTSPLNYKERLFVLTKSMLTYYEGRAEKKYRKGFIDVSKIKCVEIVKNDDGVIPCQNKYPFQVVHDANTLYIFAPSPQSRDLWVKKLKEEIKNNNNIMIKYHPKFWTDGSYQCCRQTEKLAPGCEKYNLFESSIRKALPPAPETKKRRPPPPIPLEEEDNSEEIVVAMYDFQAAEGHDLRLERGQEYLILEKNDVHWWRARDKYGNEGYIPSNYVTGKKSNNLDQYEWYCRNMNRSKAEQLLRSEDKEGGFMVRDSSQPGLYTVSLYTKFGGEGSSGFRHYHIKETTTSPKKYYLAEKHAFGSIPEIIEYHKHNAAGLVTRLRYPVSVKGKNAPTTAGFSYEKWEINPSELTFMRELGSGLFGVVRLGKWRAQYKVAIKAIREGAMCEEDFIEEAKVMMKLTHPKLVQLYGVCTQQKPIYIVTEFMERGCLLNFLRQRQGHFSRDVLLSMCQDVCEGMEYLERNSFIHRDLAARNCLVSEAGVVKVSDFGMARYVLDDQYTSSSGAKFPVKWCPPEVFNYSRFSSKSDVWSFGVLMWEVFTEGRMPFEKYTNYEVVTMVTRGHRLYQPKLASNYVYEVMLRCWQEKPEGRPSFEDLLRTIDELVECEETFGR
The experiment is described as follows: Inhibition of a panel of kinases, in vitro HotSpot kinase assay: TEC. Particulars: D-compounds panel data; 1 μM ATP. How it is done:
(§1) The degree of inhibition of a panel of kinases is determined using the in vitro HotSpot kinase assay (purified enzymes, ^33P-ATP, an appropriate substrate and 1 μM ATP).

In another experiment the target is T3, ITK (Homo sapiens, UniProt Q08881).
T3 sequence (Q08881 1-620): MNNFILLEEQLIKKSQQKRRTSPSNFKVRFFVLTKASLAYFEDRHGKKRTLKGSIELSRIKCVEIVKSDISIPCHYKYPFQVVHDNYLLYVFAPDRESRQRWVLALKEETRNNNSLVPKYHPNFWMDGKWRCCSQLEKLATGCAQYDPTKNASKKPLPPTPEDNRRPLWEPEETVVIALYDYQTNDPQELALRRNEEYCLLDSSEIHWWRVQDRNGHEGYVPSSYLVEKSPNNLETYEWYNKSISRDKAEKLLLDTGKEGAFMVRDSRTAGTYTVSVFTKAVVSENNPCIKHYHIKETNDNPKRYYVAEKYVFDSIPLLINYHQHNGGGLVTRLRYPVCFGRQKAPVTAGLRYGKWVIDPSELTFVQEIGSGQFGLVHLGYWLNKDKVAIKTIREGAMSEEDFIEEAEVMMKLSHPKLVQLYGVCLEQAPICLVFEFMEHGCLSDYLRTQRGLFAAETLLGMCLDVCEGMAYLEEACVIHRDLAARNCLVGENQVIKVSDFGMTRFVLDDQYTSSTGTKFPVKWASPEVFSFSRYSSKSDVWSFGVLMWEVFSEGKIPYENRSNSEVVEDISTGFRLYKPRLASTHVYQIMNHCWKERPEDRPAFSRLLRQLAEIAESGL
The experiment is described as follows: Inhibition of a panel of kinases, in vitro HotSpot kinase assay: ITK. The following applies: D-compounds panel data; 1 μM ATP. How it is done:
as §1

The next experiment concerns the target SRC (Homo sapiens, UniProt P12931). The experiment is described as follows: Inhibition of a panel of kinases, in vitro HotSpot kinase assay: SRC. The following applies: D-compounds panel data; 1 μM ATP. How it is done: as §1
A further experiment concerns the target EGFR (Homo sapiens, UniProt P00533). The experiment is described as follows: Inhibition of a panel of kinases, in vitro HotSpot kinase assay: EGFR. The following applies: D-compounds panel data; 1 μM ATP. How it is done: as §1

These results are taken from US20210070748A1, “INHIBITORS OF BRUTONS TYROSINE KINASE” (Pharmacyclics LLC, priority 2015, published 2021).

Structures are written as SMILES.

EGFR, sequence (P00533 25-1210): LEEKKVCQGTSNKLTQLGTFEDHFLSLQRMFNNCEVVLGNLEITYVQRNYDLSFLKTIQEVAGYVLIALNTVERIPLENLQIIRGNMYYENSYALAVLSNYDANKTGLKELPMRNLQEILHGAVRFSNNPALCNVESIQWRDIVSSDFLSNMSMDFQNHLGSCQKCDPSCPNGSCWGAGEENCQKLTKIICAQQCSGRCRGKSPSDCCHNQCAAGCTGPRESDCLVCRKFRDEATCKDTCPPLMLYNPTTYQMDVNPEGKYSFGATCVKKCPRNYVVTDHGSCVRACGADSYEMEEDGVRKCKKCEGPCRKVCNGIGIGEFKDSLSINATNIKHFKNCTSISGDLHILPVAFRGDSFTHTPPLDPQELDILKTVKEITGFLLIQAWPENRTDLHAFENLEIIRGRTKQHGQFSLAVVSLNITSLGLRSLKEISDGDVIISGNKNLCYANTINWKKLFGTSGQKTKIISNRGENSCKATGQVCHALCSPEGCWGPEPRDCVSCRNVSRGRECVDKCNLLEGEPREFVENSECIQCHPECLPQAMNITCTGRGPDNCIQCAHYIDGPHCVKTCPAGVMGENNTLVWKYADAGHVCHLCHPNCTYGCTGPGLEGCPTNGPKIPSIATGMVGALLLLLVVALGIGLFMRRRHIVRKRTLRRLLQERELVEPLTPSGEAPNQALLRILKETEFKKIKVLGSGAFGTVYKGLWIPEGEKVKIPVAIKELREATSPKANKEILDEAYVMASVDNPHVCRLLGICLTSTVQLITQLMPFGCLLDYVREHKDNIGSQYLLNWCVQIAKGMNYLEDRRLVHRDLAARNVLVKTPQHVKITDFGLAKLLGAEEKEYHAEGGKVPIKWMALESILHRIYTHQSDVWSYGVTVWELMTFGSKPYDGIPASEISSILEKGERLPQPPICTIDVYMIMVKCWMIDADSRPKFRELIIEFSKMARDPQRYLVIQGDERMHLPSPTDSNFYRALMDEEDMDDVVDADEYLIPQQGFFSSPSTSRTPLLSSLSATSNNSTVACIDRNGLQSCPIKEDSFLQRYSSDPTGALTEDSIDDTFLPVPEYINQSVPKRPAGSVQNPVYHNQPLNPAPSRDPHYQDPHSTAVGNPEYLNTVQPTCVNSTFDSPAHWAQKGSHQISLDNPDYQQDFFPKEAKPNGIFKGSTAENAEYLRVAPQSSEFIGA
LCK, sequence (P06239 whole entry): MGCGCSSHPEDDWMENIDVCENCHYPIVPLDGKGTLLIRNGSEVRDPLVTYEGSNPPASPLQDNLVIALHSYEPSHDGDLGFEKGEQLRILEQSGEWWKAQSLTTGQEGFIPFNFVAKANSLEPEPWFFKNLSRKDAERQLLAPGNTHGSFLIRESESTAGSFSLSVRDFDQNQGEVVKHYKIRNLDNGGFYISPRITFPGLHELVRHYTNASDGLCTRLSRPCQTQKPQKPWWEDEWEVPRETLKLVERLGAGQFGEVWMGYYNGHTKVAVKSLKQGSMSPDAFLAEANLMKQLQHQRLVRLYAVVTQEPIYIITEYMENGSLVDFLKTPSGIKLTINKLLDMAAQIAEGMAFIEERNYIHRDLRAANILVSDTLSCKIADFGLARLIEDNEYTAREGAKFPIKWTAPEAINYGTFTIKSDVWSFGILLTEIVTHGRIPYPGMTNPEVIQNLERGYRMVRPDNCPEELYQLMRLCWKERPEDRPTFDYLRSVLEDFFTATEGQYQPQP
SRC, sequence (P12931 whole entry): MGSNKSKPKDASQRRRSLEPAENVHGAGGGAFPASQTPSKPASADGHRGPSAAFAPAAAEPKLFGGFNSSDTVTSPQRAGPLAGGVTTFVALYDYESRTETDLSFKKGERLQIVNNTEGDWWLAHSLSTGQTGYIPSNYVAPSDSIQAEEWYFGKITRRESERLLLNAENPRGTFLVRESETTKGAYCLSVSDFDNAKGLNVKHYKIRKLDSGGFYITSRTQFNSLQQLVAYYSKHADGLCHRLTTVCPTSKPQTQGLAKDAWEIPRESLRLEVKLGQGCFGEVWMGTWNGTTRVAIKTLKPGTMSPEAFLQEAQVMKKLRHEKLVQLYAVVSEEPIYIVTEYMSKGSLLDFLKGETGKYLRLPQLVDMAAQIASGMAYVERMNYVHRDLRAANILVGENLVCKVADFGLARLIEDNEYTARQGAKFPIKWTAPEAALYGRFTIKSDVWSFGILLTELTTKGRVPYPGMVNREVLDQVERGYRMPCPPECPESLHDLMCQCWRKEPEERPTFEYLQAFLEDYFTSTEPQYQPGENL

For `Cc1nn(C)cc1Nc1nc(N2CCC[C@@H](NC(=O)c3ccc(C4CC4)cc3)[C@H]2C)cnc1C(N)=O` [Example D-272, 5-[(2R,3R)-3-(4-cyclopropylbenzamido)-2-methylpiperidin-1-yl]-3-[(1,3-dimethyl-1H-pyrazol-4-yl)amino]pyrazine-2-carboxamide], the IC50 on LCK is more than 10000 nM; at JAK3 it was more than 10000 nM; at TEC it was 1000 to 10000 nM; against ITK, more than 10000 nM; against SRC, more than 10000 nM; against EGFR it was 1000 to 10000 nM.
`C[C@@H]1[C@H](NC(=O)c2ccc(C3CC3)cc2)CCCN1c1cnc(C(N)=O)c(Nc2cn(C)nc2C(F)(F)F)n1` [Example D-278, 5-[(2R,3R)-3-(4-cyclopropylbenzamido)-2-methylpiperidin-1-yl]-3-{[1-methyl-3-(trifluoromethyl)-1H-pyrazol-4-yl]amino}pyrazine-2-carboxamide]: the IC50 at LCK, on JAK3, against TEC, against ITK, at SRC and on EGFR was more than 10000 nM each time.
As for `C[C@@H]1[C@H](NC(=O)c2ccc(C3CC3)nc2)CCCN1c1cnc(C(N)=O)c(Nc2ccc(OC3CCN(C)CC3)cc2)n1` [Example D-294, 5-[(2R,3R)-3-(6-cyclopropylpyridine-3-amido)-2-methylpiperidin-1-yl]-3-({4-[(1-methylpiperidin-4-yl)oxy]phenyl}amino)pyrazine-2-carboxamide], the IC50 at LCK is 10 to 100 nM; on JAK3, 100 to 1000 nM; against TEC, not above 10 nM; against ITK, 10 to 100 nM; against SRC, 10 to 100 nM; against EGFR it was 100 to 1000 nM.
Turning to `C[C@@H]1[C@H](NC(=O)c2ccc(C3CC3)cc2)CCCN1c1cnc(C(N)=O)c(Nc2cc(C3CCN(C4CCCC4)CC3)ns2)n1` [Example D-311, 3-{[3-(1-cyclopentylpiperidin-4-yl)-1,2-thiazol-5-yl]amino}-5-[(2R,3R)-3-(4-cyclopropylbenzamido)-2-methylpiperidin-1-yl]pyrazine-2-carboxamide], the IC50 lay within 10 to 100 nM on LCK; 100 to 1000 nM at JAK3; 10 to 100 nM against TEC; 10 to 100 nM against ITK; 10 to 100 nM against SRC; 1000 to 10000 nM on EGFR.
Turning to `C[C@@H]1[C@H](NC(=O)N(C)C)CCCN1c1nnc(C(N)=O)c(Nc2cnn(C)c2)n1` [Example D-286, 3-[(2R,3R)-3-[(dimethylcarbamoyl)amino]-2-methylpiperidin-1-yl]-5-[(1-methyl-1H-pyrazol-4-yl)amino]-1,2,4-triazine-6-carboxamide], the IC50 on LCK lay within 100 to 1000 nM; on JAK3, 1000 to 10000 nM; on TEC, 10 to 100 nM; on ITK it was 10 to 100 nM; against SRC it was 10 to 100 nM; against EGFR, 1000 to 10000 nM.
For `C[C@@H]1[C@H](NC(=O)c2ccc(C(C)(O)CO)cc2)CCCN1c1cnc(C(N)=O)c(Nc2cnn(C)c2)n1` (single isomer, unassigned) [Example D-265], the IC50 on LCK was 100 to 1000 nM; on JAK3, 100 to 1000 nM; on TEC, not above 10 nM; against ITK, 100 to 1000 nM; at SRC, 10 to 100 nM; at EGFR, 100 to 1000 nM.
With `C[C@@H]1[C@H](NC(=O)c2ccc3nn(C)cc3c2)CCCN1c1cnc(C(N)=O)c(Nc2cnn(C)c2)n1` [Example D-267, N-[(2R,3R)-1-{5-carbamoyl-6-[(1-methyl-1H-pyrazol-4-yl)amino]pyrazin-2-yl}-2-methylpiperidin-3-yl]-2-methyl-2H-indazole-5-carboxamide], the IC50 is 10 to 100 nM at LCK; 1000 to 10000 nM at JAK3; not above 10 nM on TEC; 100 to 1000 nM against ITK; 10 to 100 nM at SRC; 100 to 1000 nM against EGFR.
As to `C[C@@H]1[C@H](NC(=O)c2ccc(C3CC3)cc2)CCCN1c1cnc(C(N)=O)c(Nc2cnn(C3CCN(C(=O)C4(C)COC4)CC3)c2)n1` [Example D-289, 5-[(2R,3R)-3-(4-cyclopropylbenzamido)-2-methylpiperidin-1-yl]-3-({1-[1-(3-methyloxetane-3-carbonyl)piperidin-4-yl]-1H-pyrazol-4-yl}amino)pyrazine-2-carboxamide], the IC50 is 10 to 100 nM at LCK; 1000 to 10000 nM on JAK3; not above 10 nM on TEC; 10 to 100 nM on ITK; not above 10 nM at SRC; 100 to 1000 nM on EGFR.
`C[C@@H]1[C@H](NC(=O)c2ccc(C(O)C(F)(F)F)cc2)CCCN1c1cnc(C(N)=O)c(Nc2cnn(C)c2)n1` (single isomer, unassigned) [Example D-249]: the IC50 was 10 to 100 nM at LCK; 1000 to 10000 nM on JAK3; not above 10 nM against TEC; 100 to 1000 nM at ITK; 10 to 100 nM at SRC; 1000 to 10000 nM on EGFR.
With `C[C@@H]1[C@H](NC(=O)c2ccc3cnn(C)c3c2)CCCN1c1cnc(C(N)=O)c(Nc2cnn(C)c2)n1` [Example D-259, N-[(2R,3R)-1-{5-carbamoyl-6-[(1-methyl-1H-pyrazol-4-yl)amino]pyrazin-2-yl}-2-methylpiperidin-3-yl]-1-methyl-1H-indazole-6-carboxamide], the IC50 on LCK is 10 to 100 nM; at JAK3, 1000 to 10000 nM; on TEC, not above 10 nM; against ITK, 100 to 1000 nM; on SRC, 10 to 100 nM; at EGFR, 1000 to 10000 nM.
As to `C[C@@H]1[C@H](NC(=O)c2ccc(C3(CO)CC3)cc2)CCCN1c1cnc(C(N)=O)c(Nc2cnn(C)c2)n1` [Example D-260, 5-[(2R,3R)-3-{4-[1-(hydroxymethyl)cyclopropyl]benzamido}-2-methylpiperidin-1-yl]-3-[(1-methyl-1H-pyrazol-4-yl)amino]pyrazine-2-carboxamide], the IC50 at LCK is 10 to 100 nM; on JAK3 it was 1000 to 10000 nM; against TEC, not above 10 nM; against ITK it was 100 to 1000 nM; on SRC it was 10 to 100 nM; against EGFR it was 1000 to 10000 nM.

What is called IC50 is the midpoint of a concentration-inhibition curve.
